pKi: −log10 of the molar value. Where two headings read alike, the source gives them in different places. Blank lines part the entries; values can stand above or below the compound they belong to.
What was measured:
human eosinophils = assay: Inhibition of eosinophil shape change (GAFS); format: cell-based; conditions: for effect on histamine-induced shape change: H1 or H2 specific antagonist
Description: Eosinophil accumulation in sites of allergic reaction is a well-known characteristic of allergic rhinitis and asthma. […] Shape change is a cellular characteristic that precedes eosinophil chemotaxis.
Human granulocytes were isolated from human blood by a Ficoll gradient. The red blood cells were lysed with 5-10× Qiagen lysis buffer at room temperature for 5-7 min. Granulocytes were harvested and washed once with FACS buffer. The cells were resuspended at a density of 2×10^6 cells/mL in reaction buffer. […] Ten minutes later the cells were transferred to ice and fixed with 250 μL of ice-cold fixative buffer (2% formaldehyde) for 1 min.

[1] = biological target: T1, human histamine H4 receptor (Homo sapiens, UniProt Q9H3N8); assay: Binding assay on recombinant human histamine H4 receptor
T1 construct: expressed in transfected cells; host or cells: SK-N-MC or COS7 cells, transiently transfected with pH4R; cell membranes

Mast cells = assay: Mast cell chemotaxis assay; format: cell-based; conditions: 10 μM Histamine
Description: Mast Cell Chemotaxis Assay
Mast cell accumulation in mucosal epithelia is a well-known characteristic of allergic rhinitis and asthma. Transwells (Costar, Cambridge, Mass.) of a pore size 8 μm were coated with 100 μL of 100 ng/mL human fibronectin (Sigma) for 2 h at room temperature. […] Mast cells (2×10^5/well) were added to the top chamber. The plates were incubated for 3 h at 37° C. Transwells were removed and the cells in the bottom chamber were counted for sixty seconds using a flow cytometer.

[2] = 3H-histamine competition, membranes of SK-N-MC or COS7 cells expressing human H4, read-out: Ki
[3] = repeated in the chemotaxis table, read-out: Binding Assay Ki
[4] = Histamine 0 μM, 10 μM HR antagonist
[5] = Histamine 0.01 μM, 10 μM HR antagonist
[6] = Histamine 0.1 μM, 10 μM HR antagonist
[7] = Histamine 1 μM, 10 μM HR antagonist
[8] = Histamine 10 μM, 10 μM HR antagonist

Structure (SMILES): NCCc1c[nH]cn1 [Histamine, histamine]
Fold Change (human eosinophils; Histamine 0.01 μM, No HR Antagonist): 1.01
Fold Change (human eosinophils; Histamine 0.1 μM, No HR Antagonist): 1.21
Fold Change (human eosinophils; Histamine 1 μM, No HR Antagonist): 1.31
Fold Change (human eosinophils; Histamine 10 μM, No HR Antagonist): 1.34
shape change in eosinophils (human eosinophils; histamine alone): induces a dose-dependent shape change

pKi [1, 2]: 6.46
Structure (SMILES): Cc1cc2[nH]c(C(=O)N3CCN(C)CC3)cc2o1 [Example 14, (2-Methyl-4H-furo[3,2-b]pyrrol-5-yl)-(4-methyl-piperazin-1-yl)-methanone]

pKi [1, 2]: 6.75
pKi [1, 3]: 6.75
Structure (SMILES): O=C(c1cc2cc(Cl)sc2[nH]1)N1CCN2CCCC2C1 (stereo not shown) [Example 4, (2-Chloro-6H-thieno[2,3-b]pyrrol-5-yl)-(hexahydro-pyrrolo[1,2-a]pyrazin-2-yl)-methanone]
% Inh (Mast cells; HR Antagonist 1 μM): <5%
% Inh (Mast cells; HR Antagonist 10 μM): <5%

pKi [1, 2]: 6.15
Structure (SMILES): O=C(c1cc2sc(Cl)cc2[nH]1)N1CCN2CCCC2C1 (stereo not shown) [Example 11, (2-Chloro-4H-thieno[3,2-b]pyrrol-5-yl)-(hexahydro-pyrrolo[1,2-a]pyrazin-2-yl)-methanone]

pKi [1, 2]: 6.13
Structure (SMILES): CC1CN(C(=O)c2cc3sccc3[nH]2)CCN1 (stereo not shown) [Example 9, (3-Methyl-piperazin-1-yl)-(4H-thieno[3,2-b]pyrrol-5-yl)-methanone]

pKi [1, 2]: 6.08
Structure (SMILES): CN1CCN(C(=O)c2cc3occc3[nH]2)CC1 [Example 6, (4H-Furo[3,2-b]pyrrol-5-yl)-(4-methyl-piperazin-1-yl)-methanone]

pKi [1, 2]: 7.60
pKi [1, 3]: 7.60
Structure (SMILES): CN1CCN(C(=O)c2cc3cc(Cl)sc3[nH]2)CC1 [Example 3, (2-Chloro-6H-thieno[2,3-b]pyrrol-5-yl)-(4-methyl-piperazin-1-yl)-methanone]

pKi [1, 2]: 7.25
Structure (SMILES): CN1CCN(C(=O)c2cc3scc(Br)c3[nH]2)CC1 [Example 12, (3-Bromo-4H-thieno[3,2-b]pyrrol-5-yl)-(4-methyl-piperazin-1-yl)-methanone]

pKi [1, 2]: 8.26
Structure (SMILES): CN1CCN(C(=O)c2cc3sc(Cl)c(Cl)c3[nH]2)CC1 [Example 25, (2,3-Dichloro-4H-thieno[3,2-b]pyrrol-5-yl)-(4-methyl-piperazin-1-yl)-methanone]

pKi [1, 2]: 6.34
Structure (SMILES): O=C(c1cc2ccsc2[nH]1)N1CCN2CCCC2C1 (stereo not shown) [Example 2, (Hexahydro-pyrrolo[1,2-a]pyrazin-2-yl)-(6H-thieno[2,3-b]pyrrol-5-yl)-methanone]

pKi [1, 2]: 7.40
pKi [1, 3]: 7.40
Structure (SMILES): CN1CCN(C(=O)c2cc3sc(Cl)cc3[nH]2)CC1 [Example 10, (2-Chloro-4H-thieno[3,2-b]pyrrol-5-yl)-(4-methyl-piperazin-1-yl)-methanone]

pKi [1, 2]: 7.25
Structure (SMILES): O=C(c1cc2cc(Cl)sc2[nH]1)N1CCNCC1 [Example 5, (2-Chloro-6H-thieno[2,3-b]pyrrol-5-yl)-piperazin-1-yl-methanone]

pKi [1, 2]: 7.68
pKi [1, 3]: 7.68
Structure (SMILES): Cc1csc2cc(C(=O)N3CCN(C)CC3)[nH]c12 [Example 13, (4-Methyl-piperazin-1-yl)-(3-methyl-4H-thieno[3,2-b]pyrrol-5-yl)-methanone]
% Inh (Mast cells; HR Antagonist 1 μM): 60%

Structure (SMILES): CNC(=C[N+](=O)[O-])NCCSCc1ccc(CN(C)C)o1 [ranatidine]
effect on histamine-induced shape change (human eosinophils): did not alter
Fold Change (human eosinophils; [4]): 1.00
Fold Change (human eosinophils; [5]): 1.04
Fold Change (human eosinophils; [6]): 1.21
Fold Change (human eosinophils; [7]): 1.49
Fold Change (human eosinophils; [8]): 1.64

pKi [1, 2]: 7.10
Structure (SMILES): Cc1csc2cc(C(=O)N3CCNCC3)[nH]c12 [Example 21, (3-Methyl-4H-thieno[3,2-b]pyrrol-5-yl)-piperazin-1-yl-methanone]

pKi [1, 2]: 6.79
Structure (SMILES): Cc1csc2cc(C(=O)N3CCNC(C)C3)[nH]c12 (stereo not shown) [Example 22, (3-Methyl-piperazin-1-yl)-(3-methyl-4H-thieno[3,2-b]pyrrol-5-yl)-methanone]

pKi [1, 2]: 6.11
Structure (SMILES): Cc1cc2[nH]c(C(=O)N3CCNCC3)cc2o1 [Example 18, (2-Methyl-4H-furo[3,2-b]pyrrol-5-yl)-piperazin-1-yl-methanone]

pKi [1, 2]: 7.52
Structure (SMILES): Cc1c(Cl)sc2cc(C(=O)N3CCNCC3)[nH]c12 [Example 24, (2-Chloro-3-methyl-4H-thieno[3,2-b]pyrrol-5-yl)-piperazin-1-yl-methanone]

pKi [1, 2]: 6.90
Structure (SMILES): CN1CCN(C(=O)c2cc3sccc3[nH]2)CC1 [Example 7, (4-Methyl-piperazin-1-yl)-(4H-thieno[3,2-b]pyrrol-5-yl)-methanone]

Structure (SMILES): CN(C)CCOC(c1ccccc1)c1ccccc1 [diphenhydramine]
effect on histamine-induced shape change (human eosinophils): did not alter
Fold Change (human eosinophils; [4]): 1.00
Fold Change (human eosinophils; [5]): 1.03
Fold Change (human eosinophils; [6]): 1.18
Fold Change (human eosinophils; [7]): 1.50
Fold Change (human eosinophils; [8]): 1.63

pKi [1, 2]: 6.85
Structure (SMILES): Cc1oc2cc(C(=O)N3CCN(C)CC3)[nH]c2c1C [Example 15, (2,3-Dimethyl-4H-furo[3,2-b]pyrrol-5-yl)-(4-methyl-piperazin-1-yl)-methanone]

pKi [1, 2]: 7.07
Structure (SMILES): CN1CCN(C(=O)c2cc3ccsc3[nH]2)CC1 [Example 1, (4-Methyl-piperazin-1-yl)-(6H-thieno[2,3-b]pyrrol-5-yl)-methanone]

pKi [1, 2]: 8.30
Structure (SMILES): Cc1sc2cc(C(=O)N3CCN(C)CC3)[nH]c2c1C [Example 16, (2,3-Dimethyl-4H-thieno[3,2-b]pyrrol-5-yl)-(4-methyl-piperazin-1-yl)-methanone]

pKi [1, 2]: 8.00
Structure (SMILES): CN1CCN(C(=O)c2cc3c(Cl)c(Cl)sc3[nH]2)CC1 [Example 17, (2,3-Dichloro-6H-thieno[2,3-b]pyrrol-5-yl)-(4-methyl-piperazin-1-yl)-methanone]

pKi [1, 2]: 6.39
Structure (SMILES): O=C(c1cc2scc(Br)c2[nH]1)N1CCNCC1 [Example 19, (3-Bromo-4H-thieno[3,2-b]pyrrol-5-yl)-piperazin-1-yl-methanone]

pKi [1, 2]: 6.46
Structure (SMILES): O=C(c1cc2sccc2[nH]1)N1CCNCC1 [Example 8, Piperazin-1-yl-(4H-thieno[3,2-b]pyrrol-5-yl)-methanone]

pKi [1, 2]: 6.01
pKi [1, 3]: 6.01
Structure (SMILES): CC1CN(C(=O)c2cc3scc(Br)c3[nH]2)CCN1 (stereo not shown) [Example 20, (3-Bromo-4H-thieno[3,2-b]pyrrol-5-yl)-(3-methyl-piperazin-1-yl)-methanone]
% Inh (Mast cells; HR Antagonist 1 μM): <5%
% Inh (Mast cells; HR Antagonist 10 μM): <5%

pKi [1, 2]: 8.52
Structure (SMILES): Cc1c(Cl)sc2cc(C(=O)N3CCN(C)CC3)[nH]c12 [Example 23, (2-Chloro-3-methyl-4H-thieno[3,2-b]pyrrol-5-yl)-(4-methyl-piperazin-1-yl)-methanone]

From US7645758B2, “Heterocyclic compounds” (Janssen Pharmaceutica, N.Y., priority 2002, dated 2010)
